Publication PMC10179701, “Towards Protection of Nucleic Acids from Herbicide Attack: Self-Assembly of Betaines Based on Pillar[5]arene with Glyphosate and DNA” (International Journal of Molecular Sciences, 2023)
Marks after values point to notes of the source that are not given here.

Tests used:
[1] = biological target: DNA from salmon sperm; experiment: UV-Vis spectrophotometric titration, association with DNA from salmon sperm; assay type: binding; settings: 1:1 complex, Tris-HCl buffer pH 7.44, CDNA 2.5 × 10^–7 M, BindFit
Experimental: The interaction of GIS with a series of synthesized pillar[5]arenes 1–4 and DNA was studied by UV-Vis spectroscopy. UV-Vis spectroscopy is a universal method to study the complex properties of synthetic receptors. The interaction of GIS with DNA from salmon sperm was initially studied (Figure 5). DNA from salmon sperm was chosen as a model substrate due to its relatively low molecular weight and small size. The experiments were carried out in a Tris-HCl buffer system (pH = 7.44).
The association constants were determined by spectrophotometric titration to quantify the interaction of DNA with GIS. The UV-Vis spectra of the DNA–GIS system were recorded in such a way that the DNA concentration remained constant (2.5 × 10^–7 M), and the herbicide concentration ratio increased from 1:0.3 to 1:10 (Figure 5b). The obtained experimental data were processed by the BindFit program. The association constant of a 1:1 complex was calculated (Figure S23). The logarithm of the association constant of DNA with GIS was determined as lgKa = 4.92. […] However, in this case, the association constant of the complexes was determined with a large error.
Further, the interaction of macrocycles 1–4 with the DNA from salmon sperm in Tris-HCl was studied by UV-Vis spectroscopy. […] The association constant of compound 4-DNA complex was determined by spectrophotometric titration. […] The logarithm of the association constant of pillar[5]arene 4 with the DNA was determined as lgKa (4–DNA) = 5.24.
The association constant of compound 1-DNA complex was also determined by spectrophotometric titration (Figure S25b). The logarithm of the association constant of pillar[5]arene 1 with DNA was determined as lgKa(1–DNA) = 4.88 (Figure S27). […]
buffer solution. The UV spectra of the solutions were then recorded. The stability constant of complex was calculated by Bindfit. […]
volume of 3 mL with Tris‐HCl buffer solution. The UV spectra of the solutions were then recorded. The stability constant of each complex was calculated by Bindfit. […]
stability constant of complex was calculated by Bindfit. […]

[2] = Dynamic light scattering of macrocycle aggregates in water; assay type: physicochemical; settings: H2O, 298 K
Experimental: The next stage of the work was the study of aggregation properties of both previously synthesized ester derivatives of amino acids 1 and 2, and macrocyclic betaine derivatives 3 and 4 by dynamic light scattering (DLS). The study was carried out in water in the 1 × 10^–6–1 × 10^–4 M concentration range (Figures S11–S22). The size of associates increases with decreasing macrocycle 1 concentration in solution (Table 1). A different pattern is observed for betaine derivative 3. Thus, the particles become coarser, and the polydispersity index (PDI) of the systems increased with an increase in compound 3 concentration, which is probably due to the formation of β-sheets by oligopeptide substituents. The presence of two oppositely charged fragments in one substituent leads to the fact that compound 3 becomes similar to surfactant molecules in terms of its aggregation properties.

[3] = test system: A549 cells; experiment: MTT test, A549 cells; settings: for IC50: A549, MTT, 24 h; for cytotoxic activity: A549, concentration range 2–100 μg/mL
Experimental: (§1) The next stage of this work was the study of pillar[5]arenes 1–4 ability to inhibit the viability and proliferative activity of embryonic lung epithelial (LEC) and human lung adenocarcinoma (A549) cells using the MTT test.
(§2) Further, the ability of GIS to inhibit the viability and proliferative activity of LEC and A549 cells was studied by the MTT test. […] The average inhibitory concentration (IC50) was calculated for GIS (Table 3). […]
(§3) 1.6. Cytotoxicity of pillar[5]arenes 1–4, GIS and their mixtures on A549 and LEC Cell Lines […]
(§4) activity of LEC cells and A549 cells was investigated using the MTT test according to [2]. A549 – human alveolar adenocarcinoma cell line (ATCC, Rockville, Maryland, USA) and cow embryo lung epithelial (LEC) cells (Animal Cell Culture Collection of Russian Academy of Agricultural Science, Kazan, Russia) were cultured in DMEM (GIBCO, Waltham, MA, USA) medium supplemented with 10% serum and 100 units/mL of penicillin (PanEco, Moscow, Russia) and streptomycin (PanEco, Moscow, Russia) in a humidified atmosphere with 5% CO2 at 37 °C. Cells were seeded in 96‐well plates at a concentration of 10^4 cells/well. After 24 h of cultivation, the medium was removed from the wells and replaced with a fresh one with the addition of the test substances. The volume of the culture medium in the wells was 100
(§5) μL. After 24 h incubation of cells in the presence of substances, the medium in the wells was replaced with a fresh one containing MTT reagent at a final concentration of 0.5 mg/mL. The cells were incubated with MTT for 4 h at 37 °C in an atmosphere of 5% CO2. Then, the medium was aspirated from the wells and 100 μL of dimethyl sulfoxide was added. Probes were incubated at 37 °C for 15 min in the dark for the formazan crystals to dissolve. The optical density of the formazan solution in the wells was measured using a plate reader (BioRad xMarkTM Microplate Spectrophotometer, USA) at a wavelength of 570 nm.
(§6) Three series of experiments were carried out with at least 8 replications for each variant in the series. […]

[4] = test system: LEC cells; experiment: MTT test, LEC cells; settings: for IC50: MTT, 24 h; for cytotoxic activity: concentration range 2–100 μg/mL
Experimental: as §1, §2, §3, §4, §5, §6

[5] = test system: A549 cells; experiment: MTT assay, combined action of macrocycles with GIS on A549 cells; assay type: cell-based, human; settings: A549, pillararene 1 × 10^–5 M with GIS 3.47 × 10^–2 M
Experimental: The ability to inhibit the viability and proliferative activity of A549 cells of macrocycles 1–4 in the presence of GIS was studied using the MTT assay. […] The developed approach opens up the possibility of creating pillar[5]arene-based herbicide antidotes. […]
fresh one with the addition of the test substances.
Then, the medium was aspirated from the wells
and 100 μL of dimethyl sulfoxide was added.
the formazan crystals to dissolve. […]
substances. […] After 24 h of incubation cells were […]

Row | polydispersity index (PDI) ([2]; 1 × 10^–4 M) | size of aggregates d ([2]; 1 × 10^–4 M) | polydispersity index (PDI) ([2]; 1 × 10^–5 M) | size of aggregates d ([2]; 1 × 10^–5 M) | polydispersity index (PDI) ([2]; 1 × 10^–6 M) | size of aggregates d ([2]; 1 × 10^–6 M) | IC50 [3] | SMILES | lgKa, logarithm of the association constant with DNA [1] | cytotoxic activity [3] | IC50 [4] | cytotoxic activity [4] | change of toxicity on combined action with GIS [5] | concentration at which cytotoxic effect was recorded ([3]; A549) | concentration without ability to reduce viability ([3]; A549) | concentration at which cytotoxic effect was recorded [4] | concentration without ability to reduce viability [4]
1 | 0.37 | 249 ± 17 nm | 0.35 | 286 ± 57 nm | 0.39 | 441 ± 81 nm | >100 * μg/mL | CCOC(=O)CNC(=O)CNC(=O)C[N+](C)(C)CCCNC(=O)COc1cc2c(OCC(=O)NCCC[N+](C)(C)CC(=O)NCC(=O)NCC(=O)OCC)cc1Cc1cc(OCC(=O)NCCC[N+](C)(C)CC(=O)NCC(=O)NCC(=O)OCC)c(cc1OCC(=O)NCCC[N+](C)(C)CC(=O)NCC(=O)NCC(=O)OCC)Cc1cc(OCC(=O)NCCC[N+](C)(C)CC(=O)NCC(=O)NCC(=O)OCC)c(cc1OCC(=O)NCCC[N+](C)(C)CC(=O)NCC(=O)NCC(=O)OCC)Cc1cc(OCC(=O)NCCC[N+](C)(C)CC(=O)NCC(=O)NCC(=O)OCC)c(cc1OCC(=O)NCCC[N+](C)(C)CC(=O)NCC(=O)NCC(=O)OCC)Cc1cc(OCC(=O)NCCC[N+](C)(C)CC(=O)NCC(=O)NCC(=O)OCC)c(cc1OCC(=O)NCCC[N+](C)(C)CC(=O)NCC(=O)NCC(=O)OCC)C2.[Br-].[Br-].[Br-].[Br-].[Br-].[Br-].[Br-].[Br-].[Br-].[Br-] [Compound 1] | 4.88 | did not show statistically significant cytotoxic activity | >100 * μg/mL | did not show statistically significant cytotoxic activity | slight decrease in toxicity | – | – | – | –
2 | 0.55 | 565 ± 12 nm | 0.43 | 290 ± 38 nm | 0.39 | 276 ± 63 nm | >100 * μg/mL | C[N+](C)(CCCNC(=O)COc1cc2c(OCC(=O)NCCC[N+](C)(C)CC(=O)NCC(=O)NCC(=O)[O-])cc1Cc1cc(OCC(=O)NCCC[N+](C)(C)CC(=O)NCC(=O)NCC(=O)[O-])c(cc1OCC(=O)NCCC[N+](C)(C)CC(=O)NCC(=O)NCC(=O)[O-])Cc1cc(OCC(=O)NCCC[N+](C)(C)CC(=O)NCC(=O)NCC(=O)[O-])c(cc1OCC(=O)NCCC[N+](C)(C)CC(=O)NCC(=O)NCC(=O)[O-])Cc1cc(OCC(=O)NCCC[N+](C)(C)CC(=O)NCC(=O)NCC(=O)[O-])c(cc1OCC(=O)NCCC[N+](C)(C)CC(=O)NCC(=O)NCC(=O)[O-])Cc1cc(OCC(=O)NCCC[N+](C)(C)CC(=O)NCC(=O)NCC(=O)[O-])c(cc1OCC(=O)NCCC[N+](C)(C)CC(=O)NCC(=O)NCC(=O)[O-])C2)CC(=O)NCC(=O)NCC(=O)[O-] [Compound 3] | – | did not show statistically significant cytotoxic activity | >100 * μg/mL | did not show statistically significant cytotoxic activity | No significant differences | – | – | – | –

Row | SMILES | polydispersity index (PDI) ([2]; 1 × 10^–4 M) | size of aggregates d ([2]; 1 × 10^–4 M) | polydispersity index (PDI) ([2]; 1 × 10^–5 M) | size of aggregates d ([2]; 1 × 10^–5 M) | polydispersity index (PDI) ([2]; 1 × 10^–6 M) | size of aggregates d ([2]; 1 × 10^–6 M) | IC50 [3] | lgKa, logarithm of the association constant with DNA [1] | cytotoxic activity [3] | IC50 [4] | cytotoxic activity [4] | change of toxicity on combined action with GIS [5] | concentration at which cytotoxic effect was recorded ([3]; A549) | concentration without ability to reduce viability ([3]; A549) | concentration at which cytotoxic effect was recorded [4] | concentration without ability to reduce viability [4]
3 | CC(C)N.O=C(O)CNCP(=O)(O)O [GIS, glyphosate isopropylamine salt, reference compound] | – | – | – | – | – | – | 10,180 μg/mL | 4.92 | – | 11,430 μg/mL | – | – | ≥ 10000 µg/mL | ≤ 5000 µg/mL | ≥ 10000 µg/mL | ≤ 5000 µg/mL
